Results from patent US8273389B2, “Compositions comprising cinnamon oil (and/or its component cinnamaldehyde) and diallyl disulfide, their formulations, and methods of use” (Valent BioSciences Corporation, priority 2008, dated 2012).

Test system: Meloidogyne incognita (Root-knot nematode)
Experiment: Greenhouse pot test, root galling of cucumber seedlings by root-knot nematode
Assay type: in vivo
Settings: 25 ml soil drench, 800 J2 per pot, rated after 12-15 days, 0 = no galls, 9 = heavy galling; for Average Gall Rating (0-9): Example 2, 300 ppm AI (combined total for mixtures), nematode control 9; for Gall Rating (0-9): Example 3, 300 ppm AI (combined total for mixture), nematode control 8.25
Experimental: Tests are conducted in 2″ pots containing 125 grams non-pasteurized 2:1 sand soil mix containing 2 cucumber seedlings at the 1st true leaf stage (var. Straight Eight). Each treatment consists of 4 replicate pots. Application of test materials is carried out by drenching each pot with 25 milliliters of an aqueous dispersion of the formulation being tested. Several hours after the test materials are applied, 800, second stage juveniles (J2) of freshly hatched Meloidogyne incognita (Root-knot nematode), are applied to each pot with the exception of the untreated control. The pots are maintained for 12-15 days at standard greenhouse temperature and lighting conditions and watered as needed for the duration of the test. At harvest, the soil is removed from the roots by rinsing the roots in water. The roots are then rated for galling on a scale from 0-9 where 0 represents no galls and 9 represents heavy galling.
Tests are conducted in 2″ pots, as explained in Example 2 above.

SMILES | Average Gall Rating (0-9) | Gall Rating (0-9)
C=CCSSCC=C [Allyl disulfide (BAB-0294-75), diallyl disulfide] | 5 | 3.25
O=CC=Cc1ccccc1 [Cinnamaldehyde, cinnamaldehyde] | 7.75 | 9
